Experiments:
Assay type in all cases: cell-based
[1] = system: deoxygenation-activated cation conductance in human SS red cells; assay: On-cell patch clamp of deoxygenation-activated cation conductance, symmetric Na methanesulfonate; conditions: on-cell patch; for effect on deoxygenation-induced increase in cation conductance: 1 μM in the pipette / outside of membrane
Description: Blood cell preparation: Human SS and AA blood was obtained under IRB-approved protocols of Children's Hospital and Beth Israel Deaconess Medical Center. After buffy coat removal and 5 washes in standard human red cell wash solution containing (in mM) 150 choline Cl, 1 MgCl, and 10 Tris-MOPS, pH 7.4, red cells were resuspended in storage solution containing (in mM) 145 KCl, 15 NaCl, and 10 HEPES, pH 7.4, then kept at 4° C. until used. Human red cells allowed to settle on coverslips were mounted on an inverted microscope in a 200 μl open chamber (WPI, Sarasota, Fla.) and superfused 15 min at room temperature by bath solution containing (in mM) 150 Na methanesulfonate, 10 Na EDTA, and 10 Na HEPES, pH 7.4.
Mouse red cells allowed to settle on coverslips were superfused 15 min with bath solution containing (in mM) either 150 mM Na methanesulfonate, 10 Na EDTA, and 10 Na HEPES, pH 7.4; or 140 NaCl, 4 KCl, 1CaCl2, 1 MgCl2, 10 Na HEPES, pH 7.4. Deoxygenation was achieved by switching superfusate to the same solution gassed ≧30 min prior to the experiment with 100% N2, and by flushing of the perfusion chamber with N2 during the deoxygenation period. The resulting bath pO2 was 18 mm Hg as measured by oxygen electrode (WPI). In the experiments of FIG. 1, deoxygenated cells were subsequently re-oxygenated by exposure to the same superfusate equilibrated with room air.
Washed human or mouse red cells in solution containing (in mM) 140 NaCl, 5 KCl, 1 CaCl2, 1 MgCl2, 10 Na HEPES, pH 7.4 were exposed for 1 hr on a rotary platform in a 37° C. incubator to 25 ppm carbon monoxide (CO) in 5% CO2. CO-exposed cells were then subjected to patch clamp or to calcium imaging experiments within 60 min after return to room air, using the solutions indicated.
(§1) On-cell patch clamp: Borosilicate pipettes (Corning 7052) pulled with a Narishige two stage puller or a Sutter P97 puller and fire-polished to resistances of 10-20 MΩ were front-filled and then backfilled. Symmetric bath and pipette solutions for studies of seal resistance stability during reversibility tests of the deoxygenation-activated conductance in SAD mouse red cells were (in mM) 140 NaCl, 4 KCl, 1 CaCl2, 1 MgCl2, 10 Na HEPES, pH 7.4. These conditions yielded tight seals in 13% of patch attempts on SAD cells. For study of deoxygenation-induced monovalent cation permeation in the absence of bath Ca^2+ and Mg^2+ recorded in SAD and Berkeley mouse cells and in human cells, symmetric bath and pipette solutions contained (in mM) 150 Na methanesulfonate, 10 Na EDTA, and 10 Na HEPES, pH 7.4. These conditions yielded tight seals in 16% of patch attempts on SAD mouse red cells, 26% of attempts on Berkeley mouse cells, and 30% of attempts on human SS cells. For study of Ca^2+ permeation in human SS cells, bath and pipette solutions contained (in mM) 100 CaCl2, 10 Na HEPES, pH 7.4. These conditions yielded tights seals on 44% of attempts. For all conditions tested in human red cells, 70% of tight seals were sustained through the solution change accompanying deoxygenation to allow recording of current activity.
(§2) On-cell patch currents were recorded with the Axopatch 1-D amplifier (Axon Instruments/Molecular Devices, Sunnyvale, Calif.). Holding potential was −Vp=−50 mV (expressed as the negative of the pipette potential (e.g., equivalent to the intracellular potential with respect to the pipette). To determine current-voltage relationships (I-V curves) in Fetchex or Clampex (PCLAMP, Axon Instruments), the realtime control window in gap-free mode was used to record current traces of 10-30 sec duration at holding potentials ranging from −100 to +100 mV, in 25 mV increments. The bath reference electrode was a silver chloride wire with a 3 M KCl agar bridge. Data was filtered at 500 Hz, digitized at 2 kHz by Clampex, and analyzed offline by Fetchan and Pstat or by Clampfit subroutines of PCLAMP. Holding potentials in on-cell patch experiments were expressed as −Vp, the negative of the pipette potential.

neurite = assay: Neurite initiation and neurite length
From the text: The peptide GsMTx4 of the present invention can be prepared for pharmaceutical use by incorporation with a pharmaceutically acceptable carrier or diluent. The peptide can be formulated into tablets, capsules, caplets and the like. Suitable carriers for tablets include calcium carbonate, starch, lactose, talc, magnesium stearate and gum acacia. The peptide can also be formulated for oral, parenteral or intravenous administration in aqueous solutions, aqueous alcohol, glycol or oil solutions or emulsions. The peptide can also be formulated for inhaling by encapsulating to facilitate alveolar absorption as has been done for insulin (Inhale Therapeutic Systems, San Carlos, Calif., inhale.com). Pharmaceutical compositions suitable for such routes of administration are well known in the art. For example, suitable forms and compositions of pharmaceutical preparations can be found in Remington's Pharmaceutical Science, 1980, 15^thed. Mack Publishing Co., Easton, Pa. Thus, the peptide GsMTx4 can be administered orally, subcutaneously, parenterally, intravenously, intramuscularly or intranasally. The peptide may also be applied to medical devices that will come into contact blood. Both L and D enantiomers of GsMTx4's and its variants can be used for the present invention. We have previously shown that both L- and D-GsMTx4 block mechanosensitive channel (MSC) activity. Although, we have noted differences in the effects of these enantiomers, both forms are effective. For example, we have observed that the ability of the mirror image form (D-enantiomer) to inhibit mechanically activated ion channels is similar to the wild type peptide (L-form) (Suchyna et al 2004). […] Thus, both L and the D forms can be used in the present invention.

[2] = system: deoxygenation-activated Ca2+-permeable conductance in human SS cells; assay: On-cell patch clamp of deoxygenation-activated Ca2+-permeable conductance, CaCl2 in pipette; conditions: 1 μM in the pipette; -Vp=-25 mV
Description: Blood cell preparation: Human SS and AA blood was obtained under IRB-approved protocols of Children's Hospital and Beth Israel Deaconess Medical Center. After buffy coat removal and 5 washes in standard human red cell wash solution containing (in mM) 150 choline Cl, 1 MgCl, and 10 Tris-MOPS, pH 7.4, red cells were resuspended in storage solution containing (in mM) 145 KCl, 15 NaCl, and 10 HEPES, pH 7.4, then kept at 4° C. until used. […]
Mouse red cells allowed to settle on coverslips were superfused 15 min with bath solution containing (in mM) either 150 mM Na methanesulfonate, 10 Na EDTA, and 10 Na HEPES, pH 7.4; or 140 NaCl, 4 KCl, 1CaCl2, 1 MgCl2, 10 Na HEPES, pH 7.4. […] The resulting bath pO2 was 18 mm Hg as measured by oxygen electrode (WPI). […]
On-cell patch clamp: Borosilicate pipettes (Corning 7052) pulled with a Narishige two stage puller or a Sutter P97 puller and fire-polished to resistances of 10-20 MΩ were front-filled and then backfilled. […] For study of deoxygenation-induced monovalent cation permeation in the absence of bath Ca^2+ and Mg^2+ recorded in SAD and Berkeley mouse cells and in human cells, symmetric bath and pipette solutions contained (in mM) 150 Na methanesulfonate, 10 Na EDTA, and 10 Na HEPES, pH 7.4. […]
On-cell patch currents were recorded with the Axopatch 1-D amplifier (Axon Instruments/Molecular Devices, Sunnyvale, Calif.). […]

[3] = system: LPA-induced cation conductance in human SS red cells; assay: On-cell patch clamp of LPA-induced cation conductance; conditions: 1 μM in the pipette
From the text: as §1, §2
Deoxygenation-activated flickering cation conductance observed in human SS cells contrasted with the prolonged channel openings produced by 5 μM LPA (FIG. 10A). In SS cells, LPA increased NPo […], from 0.04±0.03 to 0.82±0.18 (n=8, p<0.001; Na methanesulfonate in bath and pipette, −Vp=−50 mV; FIG. 10B). LPA-induced cation conductance was 96% inhibited by 100 uM dipyridamole in the pipette, and 97% inhibited by 1 μM GsMTx-4 in the pipette (both n=4).

Grammastola spatulata mechanotoxin 4 (GCLEFWWKCNPNDDKCCRPKLKCSKLFKLCNFSF; listed as Grammastola spatulata) [GsMTx-4]
effect on deoxygenation-induced increase in cation conductance [1]: prevented | effect on deoxygenation-induced increase in cation conductance ([1]; listed as GsMTx4): completely inhibit | NPo after deoxygenation ([1]; 1 μM in the pipette, n=6): 0.003±0.003 | effect on neurite length (neurite): no significant effect | neurite initiation (neurite): stimulate | effect on deoxygenation-induced increase in NPo, Ca2+ in the pipette [2]: prevented | effect on LPA-induced increase in NPo [3]: prevented | inhibition of LPA-induced cation conductance ([3]; 5 μM LPA, n=4): 97%
